Patent US20240051952A1, “HMOX1 INDUCERS” (Mitobridge Inc., priority 2019, published 2024)
Each block holds one compound with its values, some of them ahead of it.

Tested on: Human Heme Oxygenase-1 (HMOX-1)
Assay: ELISA assay to measure human heme oxygenase-1 (HMOX-1) in HepG2 lysate
Type: cell-based
Conditions: for Maximum Fold induction: fold change of human HMOX1 protein levels relative to DMSO control, HepG2
Protocol: Example 143. ELISA Assay to Measure Human Heme Oxygenase-1 (HMOX-1) in HepG2 lysate
Reagents and Technical Notes:
ELISA capture antibody, standard HO-1, detection antibody and streptavidin HRP were supplied in the DuoSet IC Human total HO-1 ELISA from R&D systems (DYC3776-2). The substrate cocktail was KPL LumiGLO reserve Chemiluminescent Substrate (54-71-00). PBS was Corning Cellgro Cell Culture (21-040-CV). 10×PBS+0.05% tween20 (PBST) was from KPL.
All incubations of the plate were at room temperature (20° C.) in a closed drawer.
The ELISA plate was processed manually. All loadings were with a multichannel pipet. Plates were emptied by shaking into the sink and tapping onto paper towels to remove any remaining reagent. Plate washing was accomplished by loading all wells with PBS+0.05% tween20 (PBST) using a squirt bottle, shaking the PBST out and tapping the plate onto paper towels.
Preparation of the ELISA Plate: • 1. anti-HO-1 capture antibody was 1440 μg/ml after reconstitution in PBS. This antibody was diluted to 8 μg/ml in PBS and 50 μl per well was added to a 384 well greiner “lumitrac 200” plate. Incubated overnight. • 2. The plate was emptied and 100 μl PBS+1% BSA added to all wells. Incubated 90 minutes at room temperature.
Preparation of HepG2 Lysate: • 1. Cells were cultured in a 96-well tissue culture plate washed with PBS and then the plate frozen at −70° C. overnight. Plates were allowed to warm to ice temperature in an ice bucket. 20 μl of PBS, 0.5% Triton X100, 1 mM EDTA with 1×HALT™ protease inhibitors was added to each well and the plates incubated on ice for 1 hour. • 2. The lysates were frozen at −20° C. overnight.
Measurement of HMOX1 (“HO-1”) • 1. In a polypropylene 384 well plate, human HO-1(after reconstitution in PBS+0.5% Triton+1 mM EDTA) was serially diluted from 20 ng/ml 2-fold in PBS+0.5% triton-X100, 1 mM EDTA to make a 12-point standard curve including a zero point. • 2. In a polypropylene 96 well plate, HepG2 lysate was diluted 1 to 20 in Diluent #4 from DUOSET kit in which the assay standard is also diluted. • 3. The PBS+1% BSA was emptied from the ELISA plate and 30 μl of all samples and standards were added (duplicates recommended). The plate was incubated 90 minutes. • 4. Emptied plate and washed 4 times with PBST. • 5. Diluted HO-1 detection antibody to 200 ng/ml in PBS+1% BSA and added 30 μl to all wells. Incubated 90 minutes. • 6. Emptied plate and washed 4 times with PBST. • 7. Added 30 μl streptavidin HRP at 1/200 in PBS+1% BSA (stock streptavidin concentration not specified) to all wells. Incubated 30 minutes. • 8. Emptied plate and washed 4 times with PBST. • 9. Diluted Lumiglo reserve reagent two parts buffer to one part lumiglo substrate. Added 30 μl to all wells. Incubated 5 minutes. • 10. Measured chemiluminescence on spectramax M5 using 150 ms integration.
Table 1 below lists EC50 and fold changes of human HMOX1 protein levels relative to DMSO control upon treatment with representative compounds.

Compound: Cn1c(Nc2nc3ccc(C(F)(F)F)cc3o2)nc2cc(C(=O)NCCN3CCCCC3)ccc21 [Example 37, 1-methyl-N-(2-(piperidin-1-yl)ethyl)-2-((6-(trifluoromethyl)benzo[d]oxazol-2-yl)amino)-1H-benzo[d]imidazole-5-carboxamide]
Maximum Fold induction: 28

Compound: COCCNC(=O)c1ccc2c(c1)nc(Nc1nc3ccc(OC(F)(F)F)cc3o1)n2C [Example 45, N-(2-methoxyethyl)-1-methyl-2-((6-(trifluoromethoxy)benzo[d]oxazol-2-yl)amino)-1H-benzo[d]imidazole-5-carboxamide]
Maximum Fold induction: 10-28

Compound: Cn1c(Nc2nc3ccc(OC(F)(F)F)cc3o2)nc2cc(C(=O)Nc3cn[nH]c3)ccc21 [Example 46, 1-methyl-N-(1H-pyrazol-4-yl)-2-((6-(trifluoromethoxy)benzo[d]oxazol-2-yl)amino)-1H-benzo[d]imidazole-5-carboxamide]
Maximum Fold induction: 14-20

Compound: Cn1c(Nc2nc3ccc(OC(F)(F)F)cc3o2)nc2cc(C(=O)NC(CO)(CO)CO)ccc21 [Example 47, N-(1,3-dihydroxy-2-(hydroxymethyl)propan-2-yl)-1-methyl-2-((6-(trifluoromethoxy)benzo[d]oxazol-2-yl)amino)-1H-benzo[d]imidazole-5-carboxamide]
Maximum Fold induction: 13-16

Compound: CN(C)CC(=O)NCCNC(=O)c1ccc2c(c1)nc(Nc1nc3ccc(OC(F)(F)F)cc3o1)n2C [Example 49, N-(2-(2-(dimethylamino)acetamido)ethyl)-1-methyl-2-((6-(trifluoromethoxy)benzo[d]oxazol-2-yl)amino)-1H-benzo[d]imidazole-5-carboxamide]
Maximum Fold induction: 14-23

Compound: Cn1cc(NC(=O)c2ccc3c(c2)nc(Nc2nc4ccc(OC(F)(F)F)cc4o2)n3C)cn1 [Example 50, 1-methyl-N-(1-methyl-1H-pyrazol-4-yl)-2-((6-(trifluoromethoxy)benzo[d]oxazol-2-yl)amino)-1H-benzo[d]imidazole-5-carboxamide]
Maximum Fold induction: 12-18

Compound: Cn1c(Nc2nc3ccc(OC(F)(F)F)cc3o2)nc2cc(C(=O)NC3COC3)ccc21 [Example 51, 1-methyl-N-(oxetan-3-yl)-2-((6-(trifluoromethoxy)benzo[d]oxazol-2-yl)amino)-1H-benzo[d]imidazole-5-carboxamide]
Maximum Fold induction: 30-57

Compound: Cn1c(Nc2nc3ccc(OC(F)(F)F)cc3o2)nc2cc(C(=O)NCC3(O)COC3)ccc21 [Example 52, N-((3-hydroxyoxetan-3-yl)methyl)-1-methyl-2-((6-(trifluoromethoxy)benzo[d]oxazol-2-yl)amino)-1H-benzo[d]imidazole-5-carboxamide]
Maximum Fold induction: 27

Compound: Cn1c(Nc2nc3ccc(OC(F)(F)F)cc3o2)nc2cc(C(=O)NCCS(C)(=O)=O)ccc21 [Example 54, 1-methyl-N-(2-(methylsulfonyl)ethyl)-2-((6-(trifluoromethoxy)benzo[d]oxazol-2-yl)amino)-1H-benzo[d]imidazole-5-carboxamide]
Maximum Fold induction: 31-37

Compound: COCCOc1ccc2nc(Nc3nc4cc(C(=O)O)ccc4n3C)oc2c1 [Example 55, 2-((6-(2-methoxyethoxy)benzo[d]oxazol-2-yl)amino)-1-methyl-1H-benzo[d]imidazole-5-carboxylic acid]
Maximum Fold induction: 15 | EC50 (human HMOX1 protein in HepG2 lysate, ELISA, * = average of 2 or more EC50 determinations, NA = Not Active): 4.5 µM

The next lines start with the values.

Maximum Fold induction: 25-29
Compound: Cn1c(Nc2nc3ccc(C(F)(F)F)cc3o2)nc2cc(C(=O)O)ccc21 [Example 31, 1-methyl-2-((6-(trifluoromethyl)benzo[d]oxazol-2-yl)amino)-1H-benzo[d]imidazole-5-carboxylic acid]

Maximum Fold induction: 14-50
Compound: COCCNC(=O)c1ccc2c(c1)nc(Nc1nc3ccc(C(F)(F)F)cc3o1)n2C [Example 32, N-(2-methoxyethyl)-1-methyl-2-((6-(trifluoromethyl)benzo[d]oxazol-2-yl)amino)-1H-benzo[d]imidazole-5-carboxamide]

Maximum Fold induction: 32-45
Compound: Cn1c(Nc2nc3ccc(C(F)(F)F)cc3o2)nc2cc(C(=O)NCCO)ccc21 [Example 33, N-(2-hydroxyethyl)-1-methyl-2-((6-(trifluoromethyl)benzo[d]oxazol-2-yl)amino)-1H-benzo[d]imidazole-5-carboxamide]

Maximum Fold induction: 31-36
Compound: Cn1c(Nc2nc3ccc(C(F)(F)F)cc3o2)nc2cc(C(=O)NCCOCCO)ccc21 [Example 34, N-(2-(2-hydroxyethoxy)ethyl)-1-methyl-2-((6-(trifluoromethyl)benzo[d]oxazol-2-yl)amino)-1H-benzo[d]imidazole-5-carboxamide]

Maximum Fold induction: 37
Compound: CC(O)CNC(=O)c1ccc2c(c1)nc(Nc1nc3ccc(C(F)(F)F)cc3o1)n2C (stereo not shown) [Example 35, N-(2-hydroxypropyl)-1-methyl-2-((6-(trifluoromethyl)benzo[d]oxazol-2-yl)amino)-1H-benzo[d]imidazole-5-carboxamide]

Maximum Fold induction: 42
Compound: Cn1c(Nc2nc3ccc(C(F)(F)F)cc3o2)nc2cc(C(=O)NCCN3CCCC3)ccc21 [Example 36, 1-methyl-N-(2-(pyrrolidin-1-yl)ethyl)-2-((6-(trifluoromethyl)benzo[d]oxazol-2-yl)amino)-1H-benzo[d]imidazole-5-carboxamide]

Maximum Fold induction: 30
Compound: CC(O)COCCNC(=O)c1ccc2c(c1)nc(Nc1nc3ccc(C(F)(F)F)cc3o1)n2C (stereo not shown) [Example 38, N-(2-(2-hydroxypropoxy)ethyl)-1-methyl-2-((6-(trifluoromethyl)benzo[d]oxazol-2-yl)amino)-1H-benzo[d]imidazole-5-carboxamide]

Maximum Fold induction: 56-82
Compound: Cn1c(Nc2nc3ccc(C(F)(F)F)cc3o2)nc2cc(C(=O)NCC(O)CO)ccc21 (stereo not shown) [Example 39, N-(2,3-dihydroxypropyl)-1-methyl-2-((6-(trifluoromethyl)benzo[d]oxazol-2-yl)amino)-1H-benzo[d]imidazole-5-carboxamide]

Maximum Fold induction: 56-93
Compound: CN(C)CC(=O)NCCNC(=O)c1ccc2c(c1)nc(Nc1nc3ccc(C(F)(F)F)cc3o1)n2C [Example 40, N-(2-(2-(dimethylamino)acetamido)ethyl)-1-methyl-2-((6-(trifluoromethyl)benzo[d]oxazol-2-yl)amino)-1H-benzo[d]imidazole-5-carboxamide]

Maximum Fold induction: 35-39
Compound: Cn1c(Nc2nc3ccc(C(F)(F)F)cc3o2)nc2cc(C(=O)NCCOCC(=O)O)ccc21 [Example 41, 2-(2-(1-methyl-2-((6-(trifluoromethyl)benzo[d]oxazol-2-yl)amino)-1H-benzo[d]imidazole-5-carboxamido)ethoxy)acetic acid]

Maximum Fold induction: 39
Compound: Cn1c(Nc2nc3ccc(C(F)(F)F)cc3o2)nc2cc(C(=O)NCCOCC(C)(C)O)ccc21 [Example 42, N-(2-(2-hydroxy-2-methylpropoxy)ethyl)-1-methyl-2-((6-(trifluoromethyl)benzo[d]oxazol-2-yl)amino)-1H-benzo[d]imidazole-5-carboxamide]

Maximum Fold induction: 56
Compound: Cn1c(Nc2nc3cc(C(F)(F)F)ccc3o2)nc2cc(C(=O)NCCOCCO)ccc21 [Example 43, N-(2-(2-hydroxyethoxy)ethyl)-1-methyl-2-((5-(trifluoromethyl)benzo[d]oxazol-2-yl)amino)-1H-benzo[d]imidazole-5-carboxamide]

Maximum Fold induction: 13-20
Compound: Cn1c(Nc2nc3ccc(OC(F)(F)F)cc3o2)nc2cc(C(=O)NC(CO)CO)ccc21 [Example 48, N-(1,3-dihydroxypropan-2-yl)-1-methyl-2-((6-(trifluoromethoxy)benzo[d]oxazol-2-yl)amino)-1H-benzo[d]imidazole-5-carboxamide]

Maximum Fold induction: 29-38
Compound: Cn1c(Nc2nc3ccc(OC(F)(F)F)cc3o2)nc2cc(C(=O)NCCO)ccc21 [Example 53, N-(2-hydroxyethyl)-1-methyl-2-((6-(trifluoromethoxy)benzo[d]oxazol-2-yl)amino)-1H-benzo[d]imidazole-5-carboxamide]
